Results from patent KR20230116309A (priority 2022, dated 2023).
Structures can show the parent of a compound that is named as a salt. Where two headings read alike, the source gives them in different places.

What was measured:
[1] = system: proteins involved in foot-and-mouth disease virus replication [구제역바이러스의 증식에 관여하는 단백질]; conditions: cited from earlier work
[2] = system: chronic hepatitis B virus [B형 만성 간염 바이러스]; conditions: oral administration, human and laboratory animals; cited from earlier work
IL-12 = system: IL-12; parameters: species or system Balb/C mouse; conditions: mouse, in vivo
[3] = system: interferon-stimulated gene [인터페론-자극 유전자(interferon-stimulated gene; ISG)]; conditions: oral administration, human and laboratory animals; cited from earlier work
IFN-γ [인터페론 감마(IFN-γ)] = system: IFN-γ [인터페론 감마(IFN-γ)]; parameters: species or system Balb/C mouse; conditions: mouse, in vivo
[4] = molecular target: T1, TLR7 (toll-like receptor 7) (Homo sapiens, UniProt Q9NYK1); conditions: oral administration; cited from earlier work
T1 sequence (Q9NYK1 27-1049): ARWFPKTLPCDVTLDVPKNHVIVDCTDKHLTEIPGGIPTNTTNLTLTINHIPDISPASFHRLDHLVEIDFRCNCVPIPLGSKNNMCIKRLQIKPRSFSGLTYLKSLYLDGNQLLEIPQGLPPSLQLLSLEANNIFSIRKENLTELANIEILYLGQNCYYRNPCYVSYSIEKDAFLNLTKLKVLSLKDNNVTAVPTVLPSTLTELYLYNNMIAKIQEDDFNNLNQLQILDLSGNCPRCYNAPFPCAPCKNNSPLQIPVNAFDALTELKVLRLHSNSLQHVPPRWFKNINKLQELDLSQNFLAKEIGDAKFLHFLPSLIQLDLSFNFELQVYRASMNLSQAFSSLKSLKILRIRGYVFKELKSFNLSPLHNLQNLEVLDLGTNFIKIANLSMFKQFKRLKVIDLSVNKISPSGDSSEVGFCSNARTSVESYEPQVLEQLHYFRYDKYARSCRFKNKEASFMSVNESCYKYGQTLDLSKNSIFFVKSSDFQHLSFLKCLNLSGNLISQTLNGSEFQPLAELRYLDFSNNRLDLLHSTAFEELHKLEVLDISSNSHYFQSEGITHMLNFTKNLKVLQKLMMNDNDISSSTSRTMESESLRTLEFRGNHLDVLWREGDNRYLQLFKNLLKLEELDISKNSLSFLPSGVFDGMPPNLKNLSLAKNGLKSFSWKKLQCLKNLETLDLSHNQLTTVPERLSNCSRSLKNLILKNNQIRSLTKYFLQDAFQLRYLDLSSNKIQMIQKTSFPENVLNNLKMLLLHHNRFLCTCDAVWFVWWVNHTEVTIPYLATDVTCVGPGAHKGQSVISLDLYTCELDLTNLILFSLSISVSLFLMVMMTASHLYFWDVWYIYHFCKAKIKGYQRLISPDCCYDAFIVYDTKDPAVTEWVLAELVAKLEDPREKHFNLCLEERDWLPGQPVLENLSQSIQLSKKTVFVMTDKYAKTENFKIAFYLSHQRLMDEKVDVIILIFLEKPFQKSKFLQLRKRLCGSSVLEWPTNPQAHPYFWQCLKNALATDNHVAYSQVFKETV

LFBK cells [LFBK 세포] = test: Cytotoxicity by MTS assay (Test Example 1); assay type: cell-based, porcine; conditions: no virus, values in Table 1 (missing)
IFN-α [인터페론 알파(IFN-α)] = system: IFN-α [인터페론 알파(IFN-α)]; parameters: species or system Balb/C mouse; conditions: mouse, in vivo
[5] = system: human immunodeficiency virus [인간면역결핍 바이러스(HIV)]; conditions: cited from earlier work
[6] = system: foot-and-mouth disease virus O/VIT/2013 [구제역바이러스 O/VIT/2013]; assay type: in vivo, C57BL/6 mouse; conditions: for survival rate: 16 h before challenge with 250 LD50, day 7
[7] = system: porcine interferon alpha protein [돼지 인터페론 알파 단백질]; assay type: cell-based
[8] = system: human hepatitis C virus [인간 간염 바이러스 C형(HCV)]; conditions: cited from earlier work
IP-10 [IP-10(CXCL10)] = system: IP-10 [IP-10(CXCL10)]; parameters: species or system Balb/C mouse; conditions: mouse, in vivo
[9] = system: enterovirus 71 [엔테로바이러스 71(EV71)]; conditions: cited from earlier work
[10] = system: foot-and-mouth disease virus O/SKR/Boeun/2017 [구제역바이러스(O/SKR/Boeun/2017)]; assay type: cell-based
IL-6 = system: IL-6; parameters: species or system Balb/C mouse; conditions: mouse, in vivo
[11] = system: foot-and-mouth disease virus O/SKR/Boeun/2017 [O/SKR/Boeun/2017 바이러스]; assay type: cell-based

O=c1cnn([C@@H]2O[C@H](CO)[C@@H](O)[C@H]2O)c(=O)[nH]1 [6-아자우리딘(azauridine)]
inhibition of proteins involved in FMDV replication [1]: 구제역바이러스의 증식에 관여하는 단백질을 억제

CCCCOc1nc(N)c2c(n1)N(Cc1cccc(CN3CCCC3)c1)CC(=O)N2 [GS-9620, 베사톨리모드(Vesatolimod; GS-9620)]
inhibition of hepatitis B virus [2]: B형 만성 간염 바이러스를 억제 | IL-12 induction (IL-12): 증가가 확인된 | induction of ISG expression [3]: 발현을 유도 | IFN-γ induction (IFN-γ [인터페론 감마(IFN-γ)]): 유도되어 나타났다 | TLR7 agonist activity [4]: 효능제(agonist)로 작용 | cytotoxicity (LFBK cells [LFBK 세포]): 낮은 세포독성 | IFN-α induction (IFN-α [인터페론 알파(IFN-α)]): 유도되어 나타났다 | antiviral effect [5]: 항바이러스 효과 | survival rate ([6]; 10 mg/kg i.p.): 100% | survival rate (duration of protection) ([6]; 10 mg/kg i.p., up to day 5 after administration (challenge 1, 3, 5 days after dosing, 250 LD50)): 100% | survival rate ([6]; printed dose 25 mg/kg ('halved'), i.p.): 80% | IFN-α protein induction [7]: IFN-α 단백질을 성공적으로 유도 | antiviral effect [8]: 항바이러스 효과 | IP-10 induction (IP-10 [IP-10(CXCL10)]): 신속하게 또한 지속적으로 유도 | antiviral effect [9]: 항바이러스 효과 | FMDV replication inhibitory effect, dose dependence ([10]; 2500~156.2 μM, 24 h pretreatment, 100 TCID50, 48 h): 용량에 비례하여 구제역바이러스 증식억제 효과를 발휘 | FMDV replication inhibitory effect compared with ribavirin ([10]; same concentration, P<0.05, 100 TCID50, 48 h): 같은 농도에서 더 우수한 바이러스 증식효과 | IL-6 induction (IL-6): 신속하게 또한 지속적으로 유도 | selectivity index (CC50/EC50) ([11]; LFBK cells, 24 h pretreatment, 100TCID50 virus, 24 h after inoculation): ~650.5 | virus inhibitory effect ([11]; LFBK cells, MTS assay, values in Table 1 (missing)): 우수한 바이러스 억제효과 | selectivity index relative to ribavirin (fold higher) ([11]; compared with ribavirin): ~5 fold

N=C(N)N [구아니딘(Guanidine)-HCl]
inhibition of proteins involved in FMDV replication [1]: 구제역바이러스의 증식에 관여하는 단백질을 억제

NC(=O)c1ncn([C@@H]2O[C@H](CO)[C@@H](O)[C@H]2O)n1 [리바비린, 리바비린(ribavirin)]
inhibition of proteins involved in FMDV replication [1]: 구제역바이러스의 증식에 관여하는 단백질을 억제
